From publication PMC6063448, “Antimicrobial activity of linear lipopeptides derived from BP100 towards plant pathogens” (PLoS ONE, 2018)

Columns and labels:
[1] = tested on: Fusarium oxysporum f. sp. lycopersici FOL 3 race 2; test: MIC, antifungal growth inhibition in microtiter plates (PDB); assay type: cell-based; settings: Fo, 22°C, seven days, OD 600 nm, lowest concentration with no growth, given as interval of tested concentrations, three replicates, experiment repeated twice
How it was run: (§1)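 Conidial suspensions (10^3 conidia/mL P. expansum, 10^4 F. oxysporum) incubated with peptides in PDB with 0.003% chloramphenicol at 22 °C for seven days, OD600 read every 2 h. MIC is the lowest concentration with no growth at the end; triplicates, experiment repeated twice.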

[2] = tested on: Penicillium expansum EPS26; test: as above; assay type: cell-based; settings: Pe, 22°C, seven days, OD 600 nm, lowest concentration with no growth, given as interval of tested concentrations, three replicates, experiment repeated twice
How it was run: as §1

[3] = tested on: defense-related genes in tomato plants; test: Induction of defense gene expression of tomato plants (RT-qPCR); assay type: in vivo, tomato cv. Rio Grande; settings: for BCB gene expression, fold induction / ERT3 gene expression, fold induction / GluA gene expression, fold induction / Harp gene expression, fold induction / LOX gene expression, fold induction / Osm2 gene expression, fold induction / PPO gene expression, fold induction / PR1 gene expression, fold induction / PinII gene expression, fold induction / Sub1 gene expression, fold induction / Tas14 gene expression, fold induction: tomato leaves sprayed, 24 h, peptides and flg15 125 μM, JA 2.5 mM, ASM 300 mg/L, ΔΔCt relative to actin, above 2 = overexpression; for Number of defense-related genes significantly induced / Defense gene expression in tomato plants (genes overexpressed): treatment at 125 μM; for Defense gene expression in tomato plants (genes overexpressed): significant overexpression (REST2009)
Experimental: Seeds of tomato cv. Rio Grande plants were sown in hydroponic seed plugs (rockwool), germinated and grown under controlled greenhouse conditions (25 ± 2°C, 16 h light / 15 ± 2°C, 8 h dark, and 60% RH). Two-week old seedlings (two cotyledons) were transplanted into rockwool plugs (7.5×7.5×6.5 cm, Grodan Iberica). The experimental design consisted of three replicates of three plants per treatment. After two weeks, tomato leaves were sprayed with aqueous solutions of BP100, 9 selected derivatives and flg15 at 125 μM, jasmonic acid at 2.5 mM (Sigma-Aldrich, Sant Louis, Missouri, UE), and acybenzolar-S-methyl at 300 mg/L (Syngenta, Basel, Switzerland), until the run-off point. Water-sprayed plants were used as not treated controls. Twenty-four hours after product application leaf samples were collected and processed to extract RNA for RT-qPCR assays. Plant material was ground to a fine powder in liquid nitrogen with the Tissuelyzer II system (Qiagen). Total RNA was extracted from leaves using PureLink Plant RNA Reagent (Invitrogen, Life Technologies) according to the manufacturer’s manual. The RNA was solubilized in RNAse free water and was routinely subjected to DNAse treatment (Ambion® Turbo DNA-free™, Life Technologies) to remove any contaminant DNA. In each step, the RNA was quantified using a Nanodrop N-2000 spectrophotometer, and its integrity verified by denaturing agarose gel electrophoresis. First-strand of complementary DNA (cDNA) was generated from leave RNA using reverse transcriptase (High Capacity cDNA Reverse Transcription Kit, Invitrogen) according to the manufacturer’s manual.
To test gene defense induction in the treated tomato plants, a qPCR assay was performed. Quantitative PCR was carried out in a fluorometric thermal cycler (qPCR Quant Studio 5, Applied Biosystems) by using a Mix SYBR®Green PCR Master Mix (Applied Biosystems). The total reaction volume of this PCR reaction was 20 μL and the reaction mixture was 1 μL of each primer set at the adequate concentration, 10 μL of MixSyber Green, 6 μL of distilled water and 2 μL of cDNA. Melting curve analysis was performed after amplification to verify amplification specificity. A constitutive gene (actin gene) was used as reference control, and the following genes implicated in plant defense response were analyzed: Pathogenesis-related protein-1 (PR1), Harpin (Harp), Polyphenol oxidase (PPO), Subtilisin-like protease (Sub1), Blue copper binding-protein (BCB), Osmotin (Osm2), Acidic β-1,3 endoglucanase (GluA), Lypoxigenase (LOX), Protein inhibitor II (PinII), Dehydrin (Tas14) and Ethylene response transcription factor (ERT3). […] For each gene system, the concentration of the primer pair was optimized. The primer concentration was 100 nM for all the genes except for the GluA, Harp, PR1 and actin genes which optimized concentration was 300 nM. A calibration curve was prepared by cloning the corresponding DNA in the pSpark cloning vector (Canvax, Córdoba, Spain) according to the manufacturer instructions, which was then used to transform E. coli DH5α by standard procedures. The number of plasmid copies were quantified after purification from E. coli (QIAGEN Iberia, S. L., Madrid, Spain), and appropriate dilutions were prepared to obtain the standard curve. […] Relative quantification of gene expression was done using the ΔΔCt method. Each biological repetition treatment was analyzed in duplicate. The mean of the Ct values obtained were used to estimate the fold change value of the endogenous reference gene (actin) and the target plant defense genes.

Row | SMILES | MIC [1] [µM] | MIC [2] [µM] | BCB gene expression, fold induction [3] | ERT3 gene expression, fold induction [3] | GluA gene expression, fold induction [3] | Harp gene expression, fold induction [3] | LOX gene expression, fold induction [3] | Osm2 gene expression, fold induction [3] | PPO gene expression, fold induction [3] | PR1 gene expression, fold induction [3] | PinII gene expression, fold induction [3] | Sub1 gene expression, fold induction [3] | Tas14 gene expression, fold induction [3] | Number of defense-related genes significantly induced [3] | Defense gene expression in tomato plants (genes overexpressed) [3]
1 | CCCCCC(=O)NCCCC[C@H](NC(=O)[C@H](Cc1ccc(O)cc1)NC(=O)[C@H](CCCCN)NC(=O)[C@H](CC(C)C)NC(=O)[C@@H](NC(=O)[C@H](CCCCN)NC(=O)[C@H](CCCCN)NC(=O)[C@H](Cc1ccccc1)NC(=O)[C@H](CC(C)C)NC(=O)[C@H](CCCCN)NC(=O)[C@H](CCCCN)NC(C)=O)[C@@H](C)CC)C(N)=O [BP378, Ac-KKLFKKILKYK(COC5H11)-NH2] | 0.8 to 1.6 | 3.1 to 6.2 | 1.3 | 1.0 | 0.6 | 1.2 | 1.5 | 2.9 | 1.7 | 2.0 | 5.8 | 0.9 | 3.5 | 3 | PinII, Osm2 and Tas14
2 | CCCCCC(=O)NCCCC[C@H](NC(=O)[C@H](CC(C)C)NC(=O)[C@H](CCCCN)NC(=O)[C@H](CCCCN)NC(C)=O)C(=O)N[C@@H](CCCCN)C(=O)N[C@@H](CCCCN)C(=O)N[C@H](C(=O)N[C@@H](CC(C)C)C(=O)N[C@@H](CCCCN)C(=O)N[C@@H](Cc1ccc(O)cc1)C(=O)N[C@@H](CC(C)C)C(N)=O)[C@@H](C)CC [BP371, Ac-KKLK(COC5H11)KKILKYL-NH2] | 0.8 to 1.6 | 3.1 to 6.2 | 1.0 | 0.9 | 0.5 | 0.9 | 1.1 | 0.9 | 0.6 | 0.7 | 1.7 | 0.8 | 0.7 |  | 
3 | CCCC(=O)NCCCC[C@H](NC(=O)[C@H](CCCCN)NC(=O)[C@H](CC(C)C)NC(=O)[C@@H](NC(=O)[C@H](CCCCN)NC(=O)[C@H](CCCCN)NC(=O)[C@H](Cc1ccccc1)NC(=O)[C@H](CC(C)C)NC(=O)[C@H](CCCCN)NC(=O)[C@H](CCCCN)NC(C)=O)[C@@H](C)CC)C(=O)N[C@@H](CC(C)C)C(N)=O [BP389, Ac-KKLFKKILKK(COC3H7)L-NH2] | 1.6 to 3.1 | 6.2 to 12.5 | 2.1 | 0.1 | 0.3 | 0.9 | 1.2 | 1.0 | 0.5 | 0.3 | 2.8 | 0.5 | 0.7 | 2 | PinII and BCB
